In data set [1] the test system is T. b. brucei Lister 427 bloodstream forms. As to the kind of experiment: In vitro activity against T. brucei (HTS SYBR Green I growth inhibition assay). The class given is cell-based, Trypanosoma brucei brucei. The conditions noted are these: Trypanosoma brucei, standard deviation within ±10% of the value; for inhibition at 50 µM: read-out: % Inhibition T. brucei at 50 μM.

For a further data set, the target named is CYP3A4 (Homo sapiens, UniProt P08684). As to the kind of experiment: in vitro. Also on record: cytochrome P450 isoform inhibition liability assay. On the procedure:
(§1) Independent of the effect of any antiparasitic potential of compounds, they were evaluated using a panel of early-toxicity assays comprising cytotoxicity (A549, human lung adenocarcinoma epithelial cell line and WI-38, human lung fibroblasts), mitochondrial toxicity (786-O, human renal carcinoma cell line), hERG inhibition,[31] cytochrome P450 inhibition (CYP1A2, CYP2C9, CYP2C19, CYP2D6, and CYP3A4),[31] and Aurora B kinase inhibition. […] For the two compounds active against TbPTR1 (4m and 4o), IC50 against hERG, cytochrome P450, and mitochondrial toxicity were determined (reported in Supporting Information). We observed that the dose of compounds 4m, 4o, 4c, and 3k was 4 μM in the potentiation assays. […] In the case of hERG, CYP2D6, CYP2A9, CYP2C19, and mitochondrial toxicity, there is a selectivity index of around 3–4 fold, thus showing an acceptable profile.  Figure 10 Summary heat map of the in vitro assays to determine possible liability issues for all synthesized compounds. Assays were performed to assess inhibition of hERG and five CYP isoforms (1A2, 2C9, 2C19, 2D6, and 3A4), growth inhibition of A549 and W1-38 cell lines, and mitochondrial toxicity at 10 μM. The hDHFR inhibition was determined at 100 μM. The data, expressed as percentage values, were organized by adopting a color code for rapid and intuitive visualization. The ideal compound should have all tiles blue, indicating a safe toxicological profile for progressing into the development pipeline. The cells are colored from blue (100% of cell growth at the tested concentration) to red (0% of cell growth at the tested concentration) for A549 and W1-38 and from blue (0% of inhibitory activity at the tested concentration) to red (100% of inhibitory activity at the tested concentration) for CYP isoforms, hERG, hDHFR, and mitochondrial toxicity.

The next data set deals with CYP2C19 (Homo sapiens, UniProt P33261). Description: in vitro. Also on record: cytochrome P450 isoform inhibition liability assay. As to the method: as §1
Another data set has as its target CYP2D6 (Homo sapiens, UniProt P10635). As to the kind of experiment: in vitro. Also on record: cytochrome P450 isoform inhibition liability assay. On the procedure: as §1
A further data set concerns the target T1, CYP1A2 (Homo sapiens, UniProt P05177).
T1 sequence (P05177 1-516): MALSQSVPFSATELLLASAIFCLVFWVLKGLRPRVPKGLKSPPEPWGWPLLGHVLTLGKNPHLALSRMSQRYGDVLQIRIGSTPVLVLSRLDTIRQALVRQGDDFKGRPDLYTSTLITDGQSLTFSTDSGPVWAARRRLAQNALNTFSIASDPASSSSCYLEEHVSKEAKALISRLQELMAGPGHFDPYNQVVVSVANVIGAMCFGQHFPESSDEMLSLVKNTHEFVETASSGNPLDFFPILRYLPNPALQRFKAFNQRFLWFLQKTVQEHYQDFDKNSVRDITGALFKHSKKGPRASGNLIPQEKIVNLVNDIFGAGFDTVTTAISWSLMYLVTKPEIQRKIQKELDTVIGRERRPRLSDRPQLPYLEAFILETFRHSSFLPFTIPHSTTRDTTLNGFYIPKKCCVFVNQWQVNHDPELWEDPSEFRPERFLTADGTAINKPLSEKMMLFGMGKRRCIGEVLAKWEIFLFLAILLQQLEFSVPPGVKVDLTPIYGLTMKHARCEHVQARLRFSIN
Description: in vitro. Also on record: cytochrome P450 isoform inhibition liability assay. On the procedure:
as §1

Another data set addresses CYP2C9 (Homo sapiens, UniProt P11712). As to the kind of experiment: in vitro. Also on record: cytochrome P450 isoform inhibition liability assay. On the procedure: as §1
The target in a further data set is T2, TbPTR1 (Trypanosoma brucei brucei, UniProt O76290).
T2 construct: made in house
T2 sequence (O76290 1-268): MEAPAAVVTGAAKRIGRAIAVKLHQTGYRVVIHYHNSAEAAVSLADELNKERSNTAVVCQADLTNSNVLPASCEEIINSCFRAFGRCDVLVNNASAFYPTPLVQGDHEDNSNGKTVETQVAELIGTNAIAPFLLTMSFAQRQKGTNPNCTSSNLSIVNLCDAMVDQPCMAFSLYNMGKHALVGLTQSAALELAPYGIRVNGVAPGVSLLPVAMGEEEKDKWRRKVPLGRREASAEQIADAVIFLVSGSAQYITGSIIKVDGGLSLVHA
Description: biochemical. The conditions noted are these: 50 μM compound; for inhibition at 50 µM: read-out: % Inhibition TbPTR1 at 50 μM.

A short description of data set [2]: in vitro. Also on record: cytotoxicity, per cent cell growth of A549 cells. The conditions noted are these: human, a549 cells; read-out: % cell growth A549 at 10uM. On the procedure: as §1
The next data set concerns 786-O. Description: cells. Also on record: mitochondrial toxicity in 786-O renal carcinoma cells. The conditions noted are these: Homo sapiens, 786-0; mitochondrial toxicity. As to the method: as §1
For a further data set, the target named is T3, hERG (Homo sapiens, UniProt Q12809).
T3 construct: gene KCNH2
Also on record: hERG inhibition liability assay. On the procedure: as §1

Data set [3] in a line: in vitro. Also on record: cytotoxicity, per cent cell growth of WI-38 fibroblasts. The conditions noted are these: human, wi-38 cells; read-out: % cell growth W1-38 at 10uM. As to the method: as §1

Where two headings read alike, the source gives them in different places.

CYP3A4, sequence (P08684 whole entry, canonical isoform): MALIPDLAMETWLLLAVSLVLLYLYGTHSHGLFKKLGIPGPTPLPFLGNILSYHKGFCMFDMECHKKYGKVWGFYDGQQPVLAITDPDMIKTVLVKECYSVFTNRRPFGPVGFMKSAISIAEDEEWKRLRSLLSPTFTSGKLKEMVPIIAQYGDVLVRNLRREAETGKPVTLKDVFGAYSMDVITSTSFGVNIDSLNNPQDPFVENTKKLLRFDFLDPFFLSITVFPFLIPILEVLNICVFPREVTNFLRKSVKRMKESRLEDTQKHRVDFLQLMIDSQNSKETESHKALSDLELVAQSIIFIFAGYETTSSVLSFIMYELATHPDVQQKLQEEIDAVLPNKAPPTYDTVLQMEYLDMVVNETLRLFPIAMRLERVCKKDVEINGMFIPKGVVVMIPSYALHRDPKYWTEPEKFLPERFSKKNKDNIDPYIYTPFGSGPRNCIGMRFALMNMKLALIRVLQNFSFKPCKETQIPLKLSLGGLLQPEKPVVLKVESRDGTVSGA
CYP2C19, sequence (P33261 whole entry, canonical isoform): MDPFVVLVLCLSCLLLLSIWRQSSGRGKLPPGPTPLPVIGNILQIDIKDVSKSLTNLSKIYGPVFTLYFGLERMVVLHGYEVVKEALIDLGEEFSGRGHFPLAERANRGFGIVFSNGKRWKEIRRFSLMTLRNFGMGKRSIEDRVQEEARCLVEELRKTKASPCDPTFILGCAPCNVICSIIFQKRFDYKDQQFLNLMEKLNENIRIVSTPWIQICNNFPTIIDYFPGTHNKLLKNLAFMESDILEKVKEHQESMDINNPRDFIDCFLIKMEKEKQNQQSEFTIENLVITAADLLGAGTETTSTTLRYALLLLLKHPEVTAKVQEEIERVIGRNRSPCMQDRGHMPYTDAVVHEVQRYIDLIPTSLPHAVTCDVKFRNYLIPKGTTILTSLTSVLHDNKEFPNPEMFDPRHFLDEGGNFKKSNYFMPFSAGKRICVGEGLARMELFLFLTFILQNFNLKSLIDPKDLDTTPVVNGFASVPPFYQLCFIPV
CYP2D6, sequence (P10635 whole entry, canonical isoform): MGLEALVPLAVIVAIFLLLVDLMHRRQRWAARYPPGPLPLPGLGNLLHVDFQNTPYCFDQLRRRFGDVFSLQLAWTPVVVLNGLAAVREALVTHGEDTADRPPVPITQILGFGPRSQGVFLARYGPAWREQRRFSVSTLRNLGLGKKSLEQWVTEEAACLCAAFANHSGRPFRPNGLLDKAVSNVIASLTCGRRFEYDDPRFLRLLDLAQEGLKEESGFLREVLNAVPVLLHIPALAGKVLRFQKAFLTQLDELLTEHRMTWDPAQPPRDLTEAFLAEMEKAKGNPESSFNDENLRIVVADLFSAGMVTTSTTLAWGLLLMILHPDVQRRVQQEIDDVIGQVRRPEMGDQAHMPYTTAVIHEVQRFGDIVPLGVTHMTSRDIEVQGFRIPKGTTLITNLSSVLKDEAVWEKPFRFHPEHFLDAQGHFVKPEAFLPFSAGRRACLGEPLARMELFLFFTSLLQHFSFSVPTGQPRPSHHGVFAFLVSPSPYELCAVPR
CYP2C9, sequence (P11712 whole entry, canonical isoform): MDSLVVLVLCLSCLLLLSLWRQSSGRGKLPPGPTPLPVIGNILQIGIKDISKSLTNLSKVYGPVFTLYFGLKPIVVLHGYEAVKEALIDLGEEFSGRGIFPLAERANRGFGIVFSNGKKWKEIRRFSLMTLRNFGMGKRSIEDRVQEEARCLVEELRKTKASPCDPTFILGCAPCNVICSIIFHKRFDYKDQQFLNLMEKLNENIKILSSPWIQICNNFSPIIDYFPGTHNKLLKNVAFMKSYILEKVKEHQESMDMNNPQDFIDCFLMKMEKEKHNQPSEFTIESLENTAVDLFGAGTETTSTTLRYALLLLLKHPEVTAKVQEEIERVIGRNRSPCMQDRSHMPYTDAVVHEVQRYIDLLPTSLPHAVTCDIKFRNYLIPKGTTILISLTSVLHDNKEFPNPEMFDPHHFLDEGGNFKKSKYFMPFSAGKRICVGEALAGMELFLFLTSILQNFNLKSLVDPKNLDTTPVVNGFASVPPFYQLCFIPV
T3 sequence (Q12809 whole entry): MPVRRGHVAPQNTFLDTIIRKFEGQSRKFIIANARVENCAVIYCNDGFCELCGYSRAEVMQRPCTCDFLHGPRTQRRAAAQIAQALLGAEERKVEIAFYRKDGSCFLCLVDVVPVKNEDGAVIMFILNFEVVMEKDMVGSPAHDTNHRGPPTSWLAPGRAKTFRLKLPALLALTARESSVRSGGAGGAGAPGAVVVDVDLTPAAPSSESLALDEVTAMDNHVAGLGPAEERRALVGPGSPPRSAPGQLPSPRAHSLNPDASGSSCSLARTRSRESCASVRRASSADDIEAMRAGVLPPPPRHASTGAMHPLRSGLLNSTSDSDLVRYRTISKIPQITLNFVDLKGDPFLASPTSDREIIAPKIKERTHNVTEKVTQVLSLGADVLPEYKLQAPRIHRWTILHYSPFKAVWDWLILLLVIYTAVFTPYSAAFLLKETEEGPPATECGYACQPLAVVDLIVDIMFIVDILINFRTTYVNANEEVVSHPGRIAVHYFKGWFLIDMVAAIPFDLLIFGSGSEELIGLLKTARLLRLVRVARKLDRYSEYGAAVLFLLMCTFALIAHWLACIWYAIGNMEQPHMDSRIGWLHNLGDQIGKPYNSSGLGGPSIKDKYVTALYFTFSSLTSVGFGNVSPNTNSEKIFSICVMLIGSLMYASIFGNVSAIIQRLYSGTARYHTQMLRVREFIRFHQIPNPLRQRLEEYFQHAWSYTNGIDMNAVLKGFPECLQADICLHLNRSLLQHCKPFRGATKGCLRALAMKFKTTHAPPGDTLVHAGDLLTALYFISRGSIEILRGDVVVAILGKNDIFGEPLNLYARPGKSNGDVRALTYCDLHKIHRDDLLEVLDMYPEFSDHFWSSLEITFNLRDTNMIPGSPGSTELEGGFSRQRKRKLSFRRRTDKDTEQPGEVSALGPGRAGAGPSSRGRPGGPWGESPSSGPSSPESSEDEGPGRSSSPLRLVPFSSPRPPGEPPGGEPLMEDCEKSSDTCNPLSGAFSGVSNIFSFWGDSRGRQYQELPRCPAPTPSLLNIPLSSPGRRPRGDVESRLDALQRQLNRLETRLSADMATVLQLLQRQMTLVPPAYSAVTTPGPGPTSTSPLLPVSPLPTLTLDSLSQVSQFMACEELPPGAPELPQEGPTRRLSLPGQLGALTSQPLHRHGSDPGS

The inhibition is the relative decrease from the control value, in per cent. `Nc1nnc(-c2ccccc2)s1` [1a]: the inhibition at 50 µM in data set [1] is 21%; at TbPTR1, 25.3 ± 1.2%. In addition, the inhibition at 10 µM at CYP3A4 is 82.6 ± 1.6%; at CYP2C19 it was 76.9 ± 3.2%; at CYP2D6, -8.5 ± 2.2%; on CYP1A2 it was 24.8 ± 1.8%; at CYP2C9, 3.9 ± 2.9%; in the data set on 786-O it was 0.9 ± 10.6%. In addition, the inhibition at 10 µM on hERG is -3.3 ± 1.9%. For the same compound, the viability at 10 µM was determined as 119 ± 12.5% in “in vitro [2]” and 101 ± 10.3% in the data set “in vitro [3]”.

By EC50 is commonly meant the concentration giving half of the maximal effect. On to `NCc1ccc(-c2nnc(N)s2)cc1` [1b], for which the inhibition at 50 µM in data set [1] worked out at 93%; on TbPTR1, 7.7 ± 0.6%. Further, the EC50 in data set [1] (read-out: EC50 T. brucei) is 800 nM. Further, the inhibition at 10 µM at CYP3A4 was 23.7 ± 2.2%; on CYP2C19 it was -17.9 ± 3.7%; on CYP2D6 it was -44.2 ± 10.4%; on CYP1A2, -5.3 ± 10.2%; at CYP2C9 it was -7.9 ± 0.8%; with 786-O, 4.5 ± 2.5%. At hERG, the inhibition at 10 µM was 5.7 ± 3.9%. For the same compound, the “% Inhibition TbPTR1 at 50 μM” value at TbPTR1 was “did not show inhibition”. The viability at 10 µM in the data set “in vitro [2]” is 114 ± 1.2%; in “in vitro [3]”, 98.7 ± 11.4%.

For `COc1cc(-c2nnc(N)s2)cc(OC)c1OC` [1e], the figures for the inhibition at 50 µM (in [1]; on TbPTR1) were 1.4% and 13.5 ± 0.4%, respectively. The inhibition at 10 µM is -11.2 ± 10.3% at CYP3A4; -18.5 ± 3.7% on CYP2C19; -37.2 ± 7.9% on CYP2D6; 2.55 ± 3.9% at CYP1A2; -12.4 ± 3.9% at CYP2C9; 1 ± 1.9% on hERG. The viability at 10 µM in “in vitro [2]” came to 114 ± 6.2%; in “in vitro [3]”, 105 ± 22.3%.

On to `Nc1nnc(-c2cccc([N+](=O)[O-])c2)s1` [1k], for which the values for the inhibition at 50 µM (in [1]; on TbPTR1) were 1.4% and 15.6 ± 1.1%, respectively. Besides, the inhibition at 10 µM was -14.2 ± 13.2% on CYP3A4; -28.3 ± 17.9% at CYP2C19; -49.3 ± 17.6% on CYP2D6; 31.1 ± 2.7% at CYP1A2; 12.5 ± 6.8% at CYP2C9; -5.7 ± 12.9% in the data set on 786-O. At hERG, the inhibition at 10 µM worked out at 7 ± 5.8%. The viability at 10 µM in the data set “in vitro [2]” was found to be 113 ± 1.9%; in the data set “in vitro [3]”, 108 ± 16.8%.

On to `CN(C)C(=O)NCc1ccc(-c2nnc(N)s2)cc1` [1p], for which the inhibition at 50 µM in data set [1] was less than 0%; on TbPTR1 it was 5.3 ± 0.9%. Besides, the inhibition at 10 µM is 15.1 ± 9.9% at CYP3A4; 9.4 ± 6.5% at CYP2C19; 18.5 ± 2.7% at CYP2D6; 20.9 ± 3.3% at CYP1A2; 36.6 ± 0.6% on CYP2C9; 11.6 ± 10.1% with 786-O. In addition, the inhibition at 10 µM at hERG stood at 6.4 ± 1.9%. For the same compound, the results for the viability at 10 µM in the data set “in vitro [2]” and in “in vitro [3]” were 108.7 ± 0.45% and 118 ± 24.8%, respectively.

For `CN(C)C(=O)NCc1cccc(-c2nnc(N)s2)c1` [1q], the inhibition at 50 µM in data set [1] amounted to 1.2%; on TbPTR1, 2.5 ± 0.2%. Further, the inhibition at 10 µM on CYP3A4 came out at 4.5 ± 11.4%; at CYP2C19, 19.6 ± 8.2%; on CYP2D6, 20.4 ± 3.5%; at CYP1A2 it was 7 ± 1.9%; on CYP2C9, 19.7 ± 3.6%.

As for `Nc1nnc(-c2ccco2)s1` [1s], the inhibition at 50 µM in data set [1] is less than 0%; at TbPTR1 it was 9 ± 0.8%. For the same compound, the inhibition at 10 µM was -14.9 ± 9.7% at CYP3A4; -10.4 ± 22.5% on CYP2C19; -47.6 ± 4.7% at CYP2D6; 0.3 ± 4.9% on CYP1A2; -9 ± 3.5% at CYP2C9; 1.9 ± 4.8% in the data set on 786-O. Further, the inhibition at 10 µM at hERG was -3.8 ± 3.2%. Also, the results for the viability at 10 µM in the data set “in vitro [2]” and in “in vitro [3]” were 132 ± 9.6% and 138 ± 9.8%, respectively.

For the compound `Nc1nnc(-c2ccc(-c3ccccc3)cc2)s1` [2a], the inhibition at 50 µM in data set [1] is 43.1%; on TbPTR1 it was 10.8 ± 0.4%. In addition, the inhibition at 10 µM at CYP3A4 is 50.6 ± 3.7%; at CYP2C19, 95.8 ± 0.7%; on CYP2D6, 45.4 ± 3.1%; on CYP1A2, 98.9 ± 0.4%; on CYP2C9, 76.7 ± 0.5%; with 786-O, 11.1 ± 4.1%. Besides, the viability at 10 µM in the data set “in vitro [2]” is 142 ± 7.3%; in the data set “in vitro [3]” it was 90.7 ± 4.9%.

On to `Cc1nnc(N)s1` [3a], for which the inhibition at 50 µM in [1] was less than 0%; at TbPTR1 it was 5.4 ± 0.7%. Also, the inhibition at 10 µM at CYP3A4 was -22.3 ± 9%; on CYP2C19, -35.5 ± 2.4%; at CYP2D6 it was -46 ± 4.5%; at CYP1A2, -6.6 ± 2.1%; on CYP2C9 it was -10.9 ± 5%; in the data set on 786-O, -4.4 ± 14.3%. Also, the inhibition at 10 µM at hERG stood at 8.2 ± 6.6%. Moreover, the viability at 10 µM is 130 ± 19.1% in the data set “in vitro [2]” and 130 ± 5.8% in “in vitro [3]”.

As to `Nc1nnc(Cc2cccc([N+](=O)[O-])c2)s1` [3c], the inhibition at 50 µM in data set [1] was 0.8%; at TbPTR1, 15.8 ± 0.5%. Further, the inhibition at 10 µM was -16.9 ± 5.2% on CYP3A4; -36.1 ± 11.8% on CYP2C19; -38.6 ± 16.3% at CYP2D6; -10.9 ± 1.6% on CYP1A2; -8.8 ± 3% on CYP2C9; -4.11 ± 5.77% with 786-O. Besides, the inhibition at 10 µM on hERG is -1.8 ± 0.6%. Also, the viability at 10 µM in “in vitro [2]” amounted to 117 ± 3.5%; in “in vitro [3]”, 88.4 ± 11.1%.

As to `Nc1nnc(Cc2cccs2)s1` [3d], the inhibition at 50 µM in data set [1] is 7.5%; at TbPTR1, 18.5 ± 0.6%. Also, the inhibition at 10 µM on CYP3A4 was 17.2 ± 4.1%; at CYP2C19 it was -17.4 ± 7.4%; at CYP2D6, 29.6 ± 4%; on CYP1A2, 21.7 ± 3.4%; on CYP2C9 it was 16 ± 2%; in the data set with 786-O, -2.9 ± 14.3%. The inhibition at 10 µM on hERG is 16 ± 8.7%. The viability at 10 µM in the data set “in vitro [2]” was determined as 112 ± 4.9%; in “in vitro [3]”, 105 ± 20.6%.

Regarding `Nc1nnc(CCC(=O)c2ccccc2)s1` [3j], the inhibition at 50 µM in data set [1] was 1.2%; on TbPTR1, 12.9 ± 0.7%. For the same compound, the inhibition at 10 µM at CYP3A4 is -22.9 ± 7.1%; at CYP2C19 it was -35.4 ± 6.6%; at CYP2D6, -30.6 ± 5.9%; at CYP1A2, -13.4 ± 12.3%; at CYP2C9 it was -30.6 ± 6.8%; on hERG, -2.3 ± 10.2%. The viability at 10 µM in the data set “in vitro [2]” turned out to be 138 ± 8.8%; in the data set “in vitro [3]” it was 113 ± 8%.
